ChEMBL document CHEMBL4420079, “Methylamine derivatives as lysysl oxidase inhibitors for the treatment of cancer” (2017)
Activity calls are given as the source filed them. The rule behind the calls is not given here.

Tests used:
[1] = Inhibition of pig skin LOX incubated for 45 mins by Amplex red dye based and HRP coupled assay; design: species or system Sus scrofa
[2] = target: T1, Protein-lysine 6-oxidase (Homo sapiens) (UniProt P28300); conditions: MDA-MB-231, 1 mM
T1 sequence (whole entry): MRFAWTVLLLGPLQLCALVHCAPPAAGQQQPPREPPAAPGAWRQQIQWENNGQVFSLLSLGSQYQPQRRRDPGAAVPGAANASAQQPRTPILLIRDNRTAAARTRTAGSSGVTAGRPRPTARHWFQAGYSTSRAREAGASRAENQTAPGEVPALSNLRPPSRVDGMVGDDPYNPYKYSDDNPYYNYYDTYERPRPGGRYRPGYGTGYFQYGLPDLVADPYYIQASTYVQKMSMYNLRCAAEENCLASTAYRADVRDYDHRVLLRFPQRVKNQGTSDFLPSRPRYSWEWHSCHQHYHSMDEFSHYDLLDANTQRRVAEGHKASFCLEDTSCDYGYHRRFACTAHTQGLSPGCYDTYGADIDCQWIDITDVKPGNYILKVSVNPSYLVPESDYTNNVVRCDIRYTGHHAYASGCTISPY

IC50 [1] [µM]	SMILES	inhibition [2]
1.4	NCc1ncc(S(=O)(=O)c2ccc3ccccc3c2)s1	
	N#CCCN	Active
